Data published in patent US20250084095A1, “Aminopyrimidine Derivatives as Cyclin-Dependent Kinase Inhibitors” (Accutar Biotechnology Inc., priority 2023, published 2025).

Columns and labels:
[1] = tested on: Phospho-Rb (Ser807/811) in MCF7 cells; experiment: Phospho-Rb expression inhibition in MCF7 cells quantified by in cell Western; type: cell-based, human; conditions: Homo sapiens, MCF7, 24 h, 24 hours, in cell Western, read-out: MCF7 pRb IC50
Method: MCF7 cells were obtained from American Type Culture Collection (ATCC, HTB-22). MCF7 cells were plated in 96-well plates (VWR #10062-900, or Coming #3904) in 90 μL culture medium at a density of 20,000 cells/well in the DMEM growth medium containing 10%/FBS and 1% Penicillin Streptomycin, and then incubated at 37° C. overnight. The following day, the test compound was administered to the cells by using 1000× compound stock solution prepared in DMSO at various concentrations. 1000× compound stock solution was first diluted in culturing medium to 10×, then 10 μL compound medium was added to each well in the cell plates. After administration of the compound, the cells were then incubated at 37° C. for 24 h. Upon completion, the cells were washed with PBS briefly. 150 μL/well of 4% formaldehyde was added and the plates were incubated at room temperature for 20 min. The cells were washed with PBS briefly, and permeabilized with 150 µL/well of ice cold 100% methanol for 10 min. The cells were washed with PBS briefly and blocked with 100 µL/well LI-COR blocking buffer for 1 h at room temperature with gentle shaking. The cells were incubated overnight at 4° C. with 50 μL primary antibody rabbit anti-Phospho-Rb (Ser807/811) (1: 500, Cell Signaling, #8516) and anti-Rb (1:200, Santa Cruz, sc-73598) diluted in Intercept Blocking Buffer (LI-COR, #927-60001) containing 0.1% Tween 20. The next day, the cells were washed with 200 μL PBS containing 0.1% Tween 20, 5×5 mins at room temperature with gentle shaking, and incubated with 50 μL secondary antibody, IRDye® 800CW Goat anti-Rabbit IgG (1:1000, LI-COR, #926-32211) and FRDye® 680RD Goat anti-Mouse IgG (1:1000, LI-COR, #926-68070), in LI-COR […] blocking buffer with 0.2% Tween 20 for 1 h at room temperature with gentle shaking. The cells were washed with 200 μL PBS containing 0.1% Tween 20, 5×5 min at room temperature with gentle shaking. The cells were washed with PBS for 5 mins. 100 μL fresh PBS was added to each well and the plates were imaged on a LI-COR Odyssey CLX plate reader.
MCF7 cells were obtained from American Type Culture Collection (ATCC, HTB-22). SW1573-CDK6 KO and SW1573-CDK4 KO cells were generated by the CRISPR-Cas9 technology. All cells were plated in 96-well plates (VWR #10062-900, or Corning #3904) in 90 uL culture medium at a density of 20,000 cells/well in the respective growth medium containing 10% FBS and 1% Penicillin Streptomycin, and then incubated at 37° C. overnight. The following day, the test compound was administered to the cells by using 1000× compound stock solution prepared in DMSO at various concentrations. 1000× compound stock solution was first diluted in culturing medium to 10×, then 10 uL compound medium was added to each well in the cell plates. After administration of the compound, the cells were then incubated at 37° C. for 24 hours. Upon completion, the cells were washed with PBS briefly. 150 uL/well of 4% formaldehyde was added and the plates were incubated at room temperature for 20 mins. The cells were washed with PBS briefly, and permeabilized with 150 uL/well of ice cold 100% methanol for 10 mins. The cells were washed with PBS briefly and blocked with 100 uL/well LI-COR blocking buffer for 1 hr at room temperature with gentle shaking. The cells were incubated overnight at 4° C. with 50 uL primary antibody rabbit anti-Phospho-Rb (Ser807/811) (1: 500, Cell Signaling, #8516) and anti-Rb (1:200, Santa Cruz, sc-73598) diluted in Intercept Blocking Buffer (LI-COR, #927-60001) containing 0.1% Tween 20. The next day, the cells were washed with 200 uL PBS containing 0.1% Tween 20, 5×5 mins at room temperature with gentle shaking, and incubated with 50 uL secondary antibody, IRDye® 800CW Goat anti-Rabbit IgG (1:1000, LI-COR, #926-32211) and IRDye®680RD Goat anti-Mouse IgG (1:1000, LI-COR, #926-68070), in LI-COR blocking buffer with 0.2% Tween 20 for 1 hr at room temperature with gentle shaking. […]

22RV1 cells = experiment: Cell growth inhibition of 22RV1 cells (CellTiter-Glo); type: cell-based; conditions: Homo sapiens, 22Rv1, 120 h, 5 days, CellTiter-Glo, read-out: 22RV1 Cell Growh GI50
Method: For cell growth assay, 22RV1 (ATCC, CRL-2505) cells were seeded in 96-well plates at 1000 cells/well in 90 μl of RPMI1640 growth medium containing 20% FBS and 1% Penicillin Streptomycin, and then incubated at 37° C. overnight. The following day, the test compound was administered to the cells by using 1000× compound stock solution prepared in DMSO at various concentrations. 1000× compound stock solution was first diluted in culturing medium to 10×, then 10 uL compound medium was added to each well in the cell plates. After administration of the compound, the cells were then incubated at 37° C. for 5 days. Upon completion, the plates were equilibrated at room temperature for approximately 10 min. 100 μl of CellTiter-Glo® Reagent (Promega) was added to each well. The plates were then incubated at room temperature for 10 min and luminescence was recorded by EnSpire plate reader (PerkinElmer).
22RV1 cells were obtained from American Type Culture Collection (ATCC, CRL-2505). 22RV1 cells were seeded in 96-well plates at 1000 cells/well in 90 μL of RPMI1640 growth medium containing 10% FBS and 1% Penicillin Streptomycin, and then incubated at 37° C. overnight. The following day, the test compound was administered to the cells by using 1000× compound stock solution prepared in DMSO at various concentrations. […], then 10 uL compound medium was added to each well in the cell plates. After administration of the compound, the cells were then incubated at […] for 5 days. Upon completion, the plates were equilibrated at room temperature for approximately 10 minutes. 100 μL of CellTiter-Glo® Reagent (Promega) was added to each well. The plates were then incubated at room temperature for 10 minutes and luminescence was recorded by EnSpire plate reader (PerkinElmer).

IC50 [1] [nM] | GI50 (22RV1 cells) [nM] | Compound
40 to 150 | ≤ 120 | CC(C)n1c(C(C)(C)O)c(C#N)c2c(F)cc(-c3nc(N[C@@H]4C[C@H]5CO[C@H](O5)[C@H]4O)ncc3Cl)cc21 [Compound 26, 6-(5-chloro-2-(((1S,3R,4S,5R)-4-hydroxy-6,8-dioxabicyclo[3.2.1]octan-3-yl)amino)pyrimidin-4-yl)-4-fluoro-2-(2-hydroxypropan-2-yl)-1-isopropyl-1H-indole-3-carbonitrile]
40 to 150 | ≤ 120 | CC(C)n1c(C(C)(C)C(F)F)nc2c(F)cc(-c3nc(N[C@@H]4C[C@H]5CO[C@H](O5)[C@H]4O)ncc3Cl)cc21 [Compound 169, (1S,3R,4S,5R)-3-((5-chloro-4-(2-(1,1-difluoro-2-methylpropan-2-yl)-4-fluoro-1-isopropyl-1H-benzo[d]imidazol-6-yl)pyrimidin-2-yl)amino)-6,8-dioxabicyclo[3.2.1]octan-4-ol]
40 to 150 | 120 to 450 | Cc1c(CN2CC[C@@H](F)C2)n(C(C)C)c2cc(-c3nc(N[C@@H]4C[C@H]5CO[C@H](O5)[C@H]4O)ncc3F)ccc2c1=O [Compound 292, 7-(5-fluoro-2-(((1S,3R,4S,5R)-4-hydroxy-6,8-dioxabicyclo[3.2.1]octan-3-yl)amino)pyrimidin-4-yl)-2-(((R)-3-fluoropyrrolidin-1-yl)methyl)-1-isopropyl-3-methylquinolin-4(1H)-one]
40 to 150 | 120 to 450 | CC(C)n1c(C(C)(C)O)nc2c(F)cc(-c3nc(N[C@@H]4C[C@H]5OC[C@H](O5)[C@H]4O)ncc3Cl)cc21 [Compound 72, (1S,2S,3R,5S)-3-((5-chloro-4-(4-fluoro-2-(2-hydroxypropan-2-yl)-1-isopropyl-1H-benzo[d]imidazol-6-yl)pyrimidin-2-yl)amino)-6,8-dioxabicyclo[3.2.1]octan-2-ol]
≤ 40 | ≤ 120 | Cc1c(C(C)(C)O)cnc2c(Cl)cc(-c3nc(N[C@@H]4C[C@H]5CO[C@H](O5)[C@H]4O)ncc3Cl)cc12 [Compound 284, (1S,3R,4S,5R)-3-((5-chloro-4-(8-chloro-3-(2-hydroxypropan-2-yl)-4-methylquinolin-6-yl)pyrimidin-2-yl)amino)-6,8-dioxabicyclo[3.2.1]octan-4-ol]
150 to 1000 | 120 to 450 | Cc1c(CN2CCC[C@@H](O)C2)n(C(C)C)c2cc(-c3nc(N[C@@H]4C[C@H]5CO[C@H](O5)[C@H]4O)ncc3F)ccc2c1=O [Compound 291, 7-(5-fluoro-2-(((1S,3R,4S,5R)-4-hydroxy-6,8-dioxabicyclo[3.2.1]octan-3-yl)amino)pyrimidin-4-yl)-2-(((R)-3-hydroxypiperidin-1-yl)methyl)-1-isopropyl-3-methylquinolin-4(1H)-one]
150 to 1000 | 120 to 450 | CC(C)n1c(-c2cn[nH]c2)nc2c(F)cc(-c3nc(N[C@@H]4C[C@H]5CO[C@H](O5)[C@H]4O)ncc3Cl)cc21 [Compound 186, (1S,3R,4S,5R)-3-((5-chloro-4-(4-fluoro-1-isopropyl-2-(1H-pyrazol-4-yl)-1H-benzo[d]imidazol-6-yl)pyrimidin-2-yl)amino)-6,8-dioxabicyclo[3.2.1]octan-4-ol]
> 1000 | > 3000 | Cc1c(C(=O)N2[C@@H](C)COC[C@@H]2C)n(C(C)C)c2cc(-c3nc(N[C@@H]4C[C@H]5CO[C@H](O5)[C@H]4O)ncc3Cl)ccc2c1=O [Compound 213, 7-(5-chloro-2-(((1S,3R,4S,5R)-4-hydroxy-6,8-dioxabicyclo[3.2.1]octan-3-yl)amino)pyrimidin-4-yl)-2-((3S,5S)-3,5-dimethylmorpholine-4-carbonyl)-1-isopropyl-3-methylquinolin-4(1H)-one]
150 to 1000 | 450 to 3000 | C[C@H]1COC[C@H](C)N1Cc1cnc2c(F)cc(-c3nc(N[C@@H]4C[C@H]5CO[C@H](O5)[C@H]4O)ncc3Cl)cc2c1 [Compound 262, (1S,3R,4S,5R)-3-((5-chloro-4-(3-(((3S,5S)-3,5-dimethylmorpholino)methyl)-8-fluoroquinolin-6-yl)pyrimidin-2-yl)amino)-6,8-dioxabicyclo[3.2.1]octan-4-ol]
≤ 40 | ≤ 120 | Cc1c(-c2nc(N[C@@H]3C[C@H]4CO[C@H](O4)[C@H]3O)ncc2F)sc2c(C(C)C)cn(C)c(=O)c12 [Compound 189, 2-(5-fluoro-2-(((1S,3R,4S,5R)-4-hydroxy-6,8-dioxabicyclo[3.2.1]octan-3-yl)amino)pyrimidin-4-yl)-7-isopropyl-3,5-dimethylthieno[3,2-c]pyridin-4(5H)-one]
40 to 150 | 450 to 3000 | CC(C)c1cc2cc(-c3nc(N[C@@H]4C[C@H]5CO[C@H](O5)[C@H]4O)ncc3Cl)ccc2c(=O)n1C [Compound 237, 6-(5-chloro-2-(((1S,3R,4S,5R)-4-hydroxy-6,8-dioxabicyclo[3.2.1]octan-3-yl)amino)pyrimidin-4-yl)-3-isopropyl-2-methylisoquinolin-1(2H)-one]
≤ 40 | ≤ 120 | Cc1c(-c2nc(N[C@@H]3C[C@H]4CO[C@H](O4)[C@H]3O)ncc2F)sc2c(C)c(C(C)(C)O)cnc12 [Compound 278, (1S,3R,4S,5R)-3-((5-fluoro-4-(6-(2-hydroxypropan-2-yl)-3,7-dimethylthieno[3,2-b]pyridin-2-yl)pyrimidin-2-yl)amino)-6,8-dioxabicyclo[3.2.1]octan-4-ol]
40 to 150 | 120 to 450 | CC(C)n1c(N2CC[C@@H](F)C2)nc2c(F)cc(-c3nc(N[C@@H]4C[C@H]5CO[C@H](O5)[C@H]4O)ncc3Cl)cc21 [Compound 151, (1S,3R,4S,5R)-3-((5-chloro-4-(4-fluoro-2-((R)-3-fluoropyrrolidin-1-yl)-1-isopropyl-1H-benzo[d]imidazol-6-yl)pyrimidin-2-yl)amino)-6,8-dioxabicyclo[3.2.1]octan-4-ol]
